Where two headings read alike, the source gives them in different places.
Columns and labels:
[1] = biological target: T1, hA2B receptors expressed in CHO cells (Homo sapiens, UniProt P29275); experiment: cAMP assay hA2B CHO cells; format: cell-based; details: for Selectivity hA1/hA2B: ratio hA1 Ki / hA2B EC50; for Selectivity hA2A/hA2B: ratio hA2A Ki / hA2B EC50; for Selectivity hA3/hA2B: ratio hA3 IC50 / hA2B EC50; for EC50: stimulation of cAMP levels, hA2B CHO cells, mean ± s.e. mean
T1 construct: expressed in transfected cells; host or cells: CHO cells
T1 sequence (P29275 1-332): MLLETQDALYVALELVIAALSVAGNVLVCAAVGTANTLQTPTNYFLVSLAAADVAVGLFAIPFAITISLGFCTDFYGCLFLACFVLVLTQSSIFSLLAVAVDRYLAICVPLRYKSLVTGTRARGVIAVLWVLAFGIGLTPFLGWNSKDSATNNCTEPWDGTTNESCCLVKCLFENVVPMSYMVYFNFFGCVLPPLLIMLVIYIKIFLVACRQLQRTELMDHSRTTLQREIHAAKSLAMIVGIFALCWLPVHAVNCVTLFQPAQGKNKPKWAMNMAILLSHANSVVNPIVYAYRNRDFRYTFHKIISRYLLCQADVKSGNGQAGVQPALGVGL
Protocol: The effects of the tested compounds may be evaluated in functional assays measuring the stimulatory capability of the ligands to increase cAMP levels in hA2B receptors expressed in CHO cells. This may done as described by Pastorin et al. in “Pyrazolo[4,3-e]-1,2,4-triazolo[1,5-c]pyrimidine derivatives as adenosine receptor antagonists.
(§1) For cell preparation CHO cells transfected with human A2B or A3 receptors are washed with phosphate-buffered saline and diluted trypsin, and centrifuged for 10 min at 200 g. […] After the preincubation time at 37° C., the examined ligands (1 nM-10 μM) are added to the mixture and incubated for a further 5 min. The reaction is terminated by the addition of cold 6% trichloroacetic acid (TCA). The TCA suspension is centrifuged at 2000 g for 10 min at 4° C. and the supernatant is extracted four times with water saturated diethyl ether. […] Samples of cyclic AMP standard (0-10 pmoles) are added to each test tube containing the incubation buffer (trizma base 0.1 mM, aminophylline 8.0 mM, 2-mercaptoethanol 6.0 mM, pH 7.4) and [^3H]cyclic AMP in total volume of 0.5 mL. The binding protein previously incubated at 4° C. for 150 min, and after the addition of charcoal is centrifuged at 2000 g for 10 min. The clear supernatant is counted in a Beckman scintillation counter.

[2] = biological target: T2, hA2A receptors expressed in CHO cells (Homo sapiens, UniProt P29274); experiment: [3H]CGS21680 binding hA2A CHO cells; details: [3H]-CGS 21680, hA2A CHO cell membranes, 180 min at 25° C.; mean ± s.e. mean
T2 construct: expressed in transfected cells; host or cells: CHO cells (stably transfected, per Klotz et al. 1998); membrane preparation
Protocol: (§2) The cells are grown adherently and maintained in Dulbecco's Modified Eagles Medium with nutrient mixture F12 (DMEM/F12) without nucleosides, containing 10% fetal calf serum, penicillin (100 U/mL), streptomycin (100 μg/mL), L-glutamine (2 mM) and Geneticin (G418, 0.2 mg/mL) at 37° C. in 5% CO2/95% air. […] For membrane preparation the culture medium is removed and the cells are washed with PBS and scraped off T75 flasks in ice-cold hypotonic buffer (5 mM Tris HCl, 2 mM EDTA, pH 7.4). The cell suspension is homogenized and centrifuged for 30 min at 100,000×g. The membrane pellet is re-suspended in 50 mM Tris HCl buffer pH 7.4 and incubated with 2 UI/mL of adenosine deaminase for 30 min at 37° C.
(§3) Binding of 1 nM [^3H]—CHA to hA1CHO cells (50 μg of protein/assay) is performed using 50 mM Tris HCl buffer pH 7.4 and at least 6-8 different concentrations of agonists studied for an incubation time of 150 min at 25° C. […] Non-specific binding is determined in the presence of 10 μM of CHA and is about 20% of the total binding. […] Filter bound radioactivity is measured by scintillation spectrometry after addition of 5 mL of Aquassure.
(§4) All experimental data are expressed as the mean±standard error of the mean (s.e. mean) of three or four independent experiments performed in duplicate.

[3] = biological target: T3, hA1 receptors expressed in CHO cells (Homo sapiens, UniProt P30542); experiment: [3H]CHA binding hA1 CHO cells
T3 sequence (P30542 1-326): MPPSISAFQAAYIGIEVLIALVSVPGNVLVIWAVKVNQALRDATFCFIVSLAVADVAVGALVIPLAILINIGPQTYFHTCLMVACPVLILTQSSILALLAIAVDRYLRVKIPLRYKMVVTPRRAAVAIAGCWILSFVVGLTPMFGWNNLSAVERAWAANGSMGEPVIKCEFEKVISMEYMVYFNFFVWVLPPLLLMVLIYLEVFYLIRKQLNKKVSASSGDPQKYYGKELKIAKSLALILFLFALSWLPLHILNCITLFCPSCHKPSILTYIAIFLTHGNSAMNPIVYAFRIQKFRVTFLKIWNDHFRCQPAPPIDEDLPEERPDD
Protocol: as §2, §3, §4

[4] = biological target: T4, human A3 receptors in CHO cells (Homo sapiens, UniProt P0DMS8); experiment: cAMP assay hA3 CHO cells; format: cell-based; details: cyclic AMP assay, mean ± s.e. mean
T4 construct: expressed in transfected cells; host or cells: CHO cells
T4 sequence (P0DMS8 1-318): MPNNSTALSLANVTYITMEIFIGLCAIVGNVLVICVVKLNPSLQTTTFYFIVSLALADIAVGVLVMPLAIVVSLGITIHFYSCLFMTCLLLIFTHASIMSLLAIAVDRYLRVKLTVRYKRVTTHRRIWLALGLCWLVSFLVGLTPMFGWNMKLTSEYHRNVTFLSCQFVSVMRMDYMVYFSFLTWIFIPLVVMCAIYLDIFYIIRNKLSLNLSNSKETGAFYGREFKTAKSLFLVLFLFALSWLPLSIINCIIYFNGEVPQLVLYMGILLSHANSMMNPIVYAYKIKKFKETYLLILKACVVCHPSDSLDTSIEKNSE
Protocol: as §1

[5] = read-out: [3H]CHA binding hA1 CHO cells Ki, 1 nM [3H]-CHA, hA1 CHO cell membranes, 150 min at 25° C., mean ± s.e. mean

T2 sequence (P29274 whole entry): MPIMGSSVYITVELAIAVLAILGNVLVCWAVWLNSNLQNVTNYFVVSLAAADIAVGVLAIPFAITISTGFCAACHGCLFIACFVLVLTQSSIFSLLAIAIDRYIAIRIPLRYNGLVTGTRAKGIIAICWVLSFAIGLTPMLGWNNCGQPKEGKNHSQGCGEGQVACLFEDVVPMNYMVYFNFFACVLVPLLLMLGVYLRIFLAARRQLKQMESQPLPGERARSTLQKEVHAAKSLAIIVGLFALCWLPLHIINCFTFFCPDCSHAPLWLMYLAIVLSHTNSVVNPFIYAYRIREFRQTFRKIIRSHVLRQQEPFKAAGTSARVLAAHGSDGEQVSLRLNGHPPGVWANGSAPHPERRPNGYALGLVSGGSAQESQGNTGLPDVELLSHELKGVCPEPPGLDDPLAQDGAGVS

Structure (SMILES)	Selectivity hA1/hA2B [1]	Selectivity hA2A/hA2B [1]	Selectivity hA3/hA2B [1]	EC50 [1] [nM]	Ki [2] [nM]	Ki [3, 5] [nM]	melting point [°C]	IC50 [4] [nM]	Ki [3] [nM]
CCNC(=O)[C@H]1O[C@@H](n2cnc3c(NNC(=O)Cc4cccs4)nc(Cl)nc32)[C@H](O)[C@@H]1O [Compound 20b, (2S, 3S, 4R, 5R)-5-{2-Chloro-6-[N′-(2-thiophene-2-yl-acetyl)-hydrazino]-9H-purin-9-yl}-3,4-dihydroxy-tetrahydrofuran-2-carboxylic acid ethylamide]	0.10	1.05	0.11	603 ± 31	633 ± 60	62 ± 4	153 to 154	67 ± 4	–
CCNC(=O)[C@H]1O[C@@H](n2cnc3c(NNC(=O)c4cccs4)nc(Cl)nc32)[C@H](O)[C@@H]1O [Compound 22b, (2S, 3S, 4R, 5R)-5-{2-Chloro-6-[N′-(thiophene-2-carbonyl)-hydrazino]-9H-purin-9-yl}3,4-dihydroxy-tetrahydrofuran-2-carboxylic acid ethylamide]	3.68	>5.00	>5.00	200 ± 20	> 1000	737 ± 76	189 to 190	> 1000	–
CCNC(=O)[C@H]1O[C@@H](n2cnc3c(NNC(=O)c4cc(-c5ccccc5)on4)nc(Cl)nc32)[C@H](O)[C@@H]1O [Compound 26b, (2S, 3S, 4R, 5R)-5-{2-Chloro-6-[N′-(5-phenyl-isoxazole-3-carbonyl)-hydrazino]-9H-purin-9-yl}-3,4-dihydroxy-tetrahydrofuran-2-carboxylic acid ethylamide]	–	–	–	> 1000	> 1000	–	169 to 170	> 1000	> 1000

The next lines start with the values.

Selectivity hA1/hA2B [1]	Selectivity hA2A/hA2B [1]	Selectivity hA3/hA2B [1]	EC50 [1] [nM]	Ki [2] [nM]	Ki [3, 5] [nM]	melting point [°C]	IC50 [4] [nM]	Ki [3] [nM]	Structure (SMILES)
–	–	–	> 1000	> 1000	–	188 to 189	> 1000	> 1000	CCNC(=O)[C@H]1O[C@@H](n2cnc3c(NNC(=O)c4ccc(Cl)cc4)ncnc32)[C@H](O)[C@@H]1O [Compound 10b, (2S, 3S, 4R, 5R)-5-{6-[N′-(4-Chlorobenzoyl)-hydrazino]-9H-purin-9-yl}-3,4-dihydroxy-tetrahydrofuran-2-carboxylic acid ethylamide]
3.08	5.73	>4.40	227 ± 18	1300 ± 50	700 ± 25	154 to 155	> 1000	–	CCNC(=O)[C@H]1O[C@@H](n2cnc3c(NNC(=O)c4ccc(C)o4)ncnc32)[C@H](O)[C@@H]1O [Compound 14b, (2S, 3S, 4R, 5R)-3,4-Dihydroxy-5-{6-[N′-(5-methyl-furan-2-carbonyl)-hydrazino]-9H-purin-9-yl}-tetrahydrofuran-2-carboxylic acid ethylamide]

Source: US7691825B2, “Adenosine A2B receptor agonists” (King Pharmaceuticals Research and Development, Inc., priority 2006, dated 2010)
